In US10005767B2, “Compositions and methods for inhibition of the JAK pathway” (Rigel Pharmaceuticals, Inc., priority 2009, dated 2018):
Read-outs that look alike come from different tables or passages of the source.

Tested on: human primary T-cells, IL-2 stimulated proliferation (JAK-1 and JAK-3 dependent; reported as JAK3 activity)
Test: Human primary T-cell proliferation stimulated by IL-2 (Example 3)
Assay type: cell-based
Settings: tested under conditions described in Example 3 (IL-2 stimulated human primary T-cell proliferation), read-out: ability to inhibit JAK3 activity, IC50 range (Table V)
Procedure, shortened: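 Peripheral-blood human T-cells pre-activated via TCR/CD28, IL-2-starved overnight, then cultured 72 h at 37 °C with compound in Yssel's medium containing IL-2 (80 U/mL in cell suspension). Proliferation read as viable-cell ATP by CellTiter-Glo luminescence; reduction versus control taken as JAK pathway inhibition.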

| Structure (SMILES) | IC50 (Homo sapiens, T-cell) | IC50 |
| --- | --- | --- |
| Cc1cnc(Nc2ccc3c(c2)CN(O)C3)nc1Nc1ccc2oc(=O)[nH]c2c1 [III-2, N4-(benzo[d]oxazol-2(3H)-on-5-yl)-N2-(2-hydroxyisoindolin-5-yl)-5-methylpyrimidine-2,4-diamine] | < 500 nM | – |
| Cc1cnc(Nc2ccc3c(c2)CN(C(=O)OC(C)(C)C)C3)nc1Nc1ccc2oc(=O)[nH]c2c1 [III-3, N4-(benzo[d]oxazol-2(3H)-on-5-yl)-N2-(2-tert-butoxoxycarbonylisoindolin-5-yl)-5-methylpyrimidine-2,4-diamine] | – | < 500 nM |
| Cc1cnc(Nc2ccc3c(c2)CN(C)C3)nc1Nc1ccc2oc(=O)[nH]c2c1 [III-4, N4-(benzo[d]oxazol-2(3H)-on-5-yl)-N2-(2-methylisoindolin-5-yl)-5-methylpyrimidine-2,4-diamine] | < 500 nM | – |
| CCN1Cc2ccc(Nc3ncc(C)c(Nc4ccc5oc(=O)[nH]c5c4)n3)cc2C1 [III-5, N4-(benzo[d]oxazol-2(3H)-on-5-yl)-N2-(2-ethylisoindolin-5-yl)-5-methylpyrimidine-2,4-diamine] | < 500 nM | – |
| CCCN1Cc2ccc(Nc3ncc(C)c(Nc4ccc5oc(=O)[nH]c5c4)n3)cc2C1 [III-6, N4-(benzo[d]oxazol-2(3H)-on-5-yl)-N2-(2-n-propylisoindolin-5-yl)-5-methylpyrimidine-2,4-diamine] | < 500 nM | – |
| Cc1cnc(Nc2ccc3c(c2)CN(CC2CC2)C3)nc1Nc1ccc2oc(=O)[nH]c2c1 [III-7, N4-(benzo[d]oxazol-2(3H)-on-5-yl)-N2-(2-cyclopropylmethylylisoindolin-5-yl)-5-methylpyrimidine-2,4-diamine] | – | < 500 nM |
| Cc1cnc(Nc2ccc3c(c2)CN(CC(C)C)C3)nc1Nc1ccc2oc(=O)[nH]c2c1 [III-8, N4-(benzo[d]oxazol-2(3H)-on-5-yl)-N2-(2-isobutylisoindolin-5-yl)-5-methylpyrimidine-2,4-diamine] | < 500 nM | – |
| Cc1cnc(Nc2ccc3c(c2)CN(CCC(C)C)C3)nc1Nc1ccc2oc(=O)[nH]c2c1 [III-9, N4-(benzo[d]oxazol-2(3H)-on-5-yl)-N2-(2-isopentylisoindolin-5-yl)-5-methylpyrimidine-2,4-diamine] | < 500 nM | – |
| Cc1cnc(Nc2ccc3c(c2)CN(CC2CCCC2)C3)nc1Nc1ccc2oc(=O)[nH]c2c1 [III-10, N4-(benzo[d]oxazol-2(3H)-on-5-yl)-N2-(2-cyclopentylmethylisoindolin-5-yl)-5-methylpyrimidine-2,4-diamine] | < 500 nM | – |
| CC(=O)N1Cc2ccc(Nc3ncc(C)c(Nc4ccc5oc(=O)[nH]c5c4)n3)cc2C1 [III-12, 5-[2-(2-Acetyl-2,3-dihydro-1H-isoindol-5-ylamino)-5-methyl-pyrimidin-4-ylamino]-3H-benzooxazol-2-one] | < 500 nM | – |
| Cc1cnc(Nc2ccc3c(c2)CN(C(=O)C(C)(C)C)C3)nc1N(C(=O)C(C)(C)C)c1ccc2oc(=O)n(C(=O)C(C)(C)C)c2c1 [III-13, N-{2-[2-(2,2-Dimethyl-propionyl)-2,3-dihydro-1H-isoindol-5-ylamino]-5-methyl-pyrimidin-4-yl}-N-[3-(2,2-dimethyl-propionyl)-2-oxo-2,3-dihydro-benzooxazol-5-yl]-2,2-dimethyl-propionamide] | < 500 nM | – |
| Cc1cnc(Nc2ccc3c(c2)CN(S(C)(=O)=O)C3)nc1Nc1ccc2oc(=O)[nH]c2c1 [III-14, 5-[2-(2-Methanesulfonyl-2,3-dihydro-1H-isoindol-5-ylamino)-5-methyl-pyrimidin-4-ylamino]-3H-benzooxazol-2-one] | < 500 nM | – |
| Cc1cnc(Nc2ccc3c(c2)CCC(N2CCCC2)CC3)nc1Nc1ccc2oc(=O)[nH]c2c1 (stereo not shown) [IV-1, N4-(benzo[d]oxazol-2(3H)-on-5-yl)-N2-(7-(pyrrolidin-1-yl)-6,7,8,9-tetrahydro-5H-benzo[7]annulen-2-yl)-5-methylpyrimidine-2,4-diamine] | < 500 nM | – |
| Cc1cnc(Nc2ccc3c(c2)C(=O)CCCC3)nc1Nc1ccc2oc(=O)[nH]c2c1 [IV-2, N4-(benzo[d]oxazol-2(3H)-on-5-yl)-N2-(6,7,8,9-tetrahydro-5H-benzo[7]annulen-5-on-3-yl)-5-methylpyrimidine-2,4-diamine] | < 500 nM | – |
| Cc1cnc(Nc2ccc(N3CCN(C)CC3)nn2)nc1Nc1ccc2oc(=O)[nH]c2c1 [IV-3, N4-(benzo[d]oxazol-2(3H)-on-5-yl)-N2-(6-(4-methylpiperazin-1-yl)pyridazin-3-yl)-5-methylpyrimidine-2,4-diamine] | > 10000 nM | – |
| Cc1cnc(Nc2ccc3cn[nH]c3c2)nc1Nc1ccc2oc(=O)[nH]c2c1 [IV-4, N4-(benzo[d]oxazol-2(3H)-on-5-yl)-N2-(1H-indazol-6-yl)-5-methylpyrimidine-2,4-diamine] | < 500 nM | – |
| Cc1cnc(Nc2ccc3cnoc3c2)nc1Nc1ccc2oc(=O)[nH]c2c1 [IV-5, N4-(benzo[d]oxazol-2(3H)-on-5-yl)-N2-(1,2-benzisoxazol-6-yl)-5-methylpyrimidine-2,4-diamine] | < 500 nM | – |

| Structure (SMILES) | IC50 (Homo sapiens, T-cell) | IC50 |
| --- | --- | --- |
| Cc1cnc(Nc2ccc3[nH]ncc3c2)nc1Nc1ccc2oc(=O)[nH]c2c1 [IV-6, N4-(benzo[d]oxazol-2(3H)-on-5-yl)-N2-(1H-indazol-5-yl)-5-methylpyrimidine-2,4-diamine] | < 500 nM | – |
| Cc1cnc(Nc2ccnc(N3CCNCC3)c2)nc1Nc1ccc2oc(=O)[nH]c2c1 [IV-7, N4-(benzo[d]oxazol-2(3H)-on-5-yl)-N2-[2-(piperazino)pyridin-4-yl]-5-methylpyrimidine-2,4-diamine] | 5000 to 10000 nM | – |
| Cc1cnc(Nc2ccnc(N3CCN(C)CC3)c2)nc1Nc1ccc2oc(=O)[nH]c2c1 [IV-8, N4-(benzo[d]oxazol-2(3H)-on-5-yl)-N2-[2-(4-methylpiperazino)pyridin-4-yl]-5-methylpyrimidine-2,4-diamine] | > 10000 nM | – |
| Cc1cnc(Nc2ccc3onc(C)c3c2)nc1Nc1ccc2oc(=O)[nH]c2c1 [IV-9, N4-(benzo[d]oxazol-2(3H)-on-5-yl)-N2-(3-methyl-1,2-benzisoxazol-5-yl)-5-methylpyrimidine-2,4-diamine] | < 500 nM | – |
| Cc1cnc(Nc2ccc3c(c2)C(=O)N(C)C/C=C\C3)nc1Nc1ccc2oc(=O)[nH]c2c1 [IV-10, (Z)-2-Methyl-9-[5-methyl-4-(2-oxo-2,3-dihydro-benzooxazol-5-ylamino)-pyrimidin-2-ylamino]-3,6-dihydro-2H-benzo[c]azocin-1-one] | < 500 nM | – |
| Cc1cnc(Nc2cccc3c2OC(F)(F)O3)nc1Nc1ccc2oc(=O)[nH]c2c1 [IV-11, 5-[2-(2,2-Difluoro-benzo[1,3]dioxol-4-ylamino)-5-methyl-pyrimidin-4-ylamino]-3H-benzooxazol-2-one] | < 500 nM | – |
| Cc1cnc(Nc2ccc3c(c2)C(NC(C)C)CCCC3)nc1Nc1ccc2oc(=O)[nH]c2c1 (stereo not shown) [IV-12, 5-[2-(9-Isopropylamino-6,7,8,9-tetrahydro-5H-benzocyclohepten-2-ylamino)-5-methyl-pyrimidin-4-ylamino]-3H-benzooxazol-2-one] | < 500 nM | – |
| CCN(CC)C1CCN(C2CCCCc3ccc(Nc4ncc(C)c(Nc5ccc6oc(=O)[nH]c6c5)n4)cc32)C1 (stereo not shown) [IV-13, 5-{2-[9-(3-Diethylamino-pyrrolidin-1-yl)-6,7,8,9-tetrahydro-5H-benzocyclohepten-2-ylamino]-5-methyl-pyrimidin-4-ylamino}-3H-benzooxazol-2-one] | 500 to 5000 nM | – |
| Cc1cnc(Nc2ccc3c(c2)C(=O)N(C)CCCC3)nc1Nc1ccc2oc(=O)[nH]c2c1 [IV-14, 2-Methyl-9-[5-methyl-4-(2-oxo-2,3-dihydro-benzooxazol-5-ylamino)-pyrimidin-2-ylamino]-3,4,5,6-tetrahydro-2H-benzo[c]azocin-1-one] | < 500 nM | – |
| Cc1cnc(Nc2ccc3c(c2)CCNC3=O)nc1Nc1ccc2oc(=O)[nH]c2c1 [IV-15, 6-[5-Methyl-4-(2-oxo-2,3-dihydro-benzooxazol-5-ylamino)-pyrimidin-2-ylamino]-3,4-dihydro-2H-isoquinolin-1-one] | < 500 nM | – |
| Cc1cnc(Nc2ccc3c(c2)NS(=O)(=O)CO3)nc1Nc1ccc2oc(=O)[nH]c2c1 [IV-16, 5-[2-(2,2-Dioxo-1H-benzo[e][1,3,4]oxathiazin-7-ylamino)-5-methyl-pyrimidin-4-ylamino]-3H-benzooxazol-2-one] | < 500 nM | – |
| Cc1cnc(Nc2ccc3c(c2)OC(C)(C)O3)nc1Nc1ccc2oc(=O)[nH]c2c1 [IV-17, 5-[2-(2,2-Dimethyl-benzo[1,3]dioxol-5-ylamino)-5-methyl-pyrimidin-4-ylamino]-3H-benzooxazol-2-one] | < 500 nM | – |
| Cc1cnc(Nc2ccc3c(c2)C=CCNC3=O)nc1Nc1ccc2oc(=O)[nH]c2c1 [IV-18, (Z)-5-(5-methyl-2-(1-oxo-2,3-dihydro-1H-benzo[c]azepin-7-ylamino)pyrimidin-4-ylamino)benzo[d]oxazol-2(3H)-one] | < 500 nM | – |
| Cc1cnc(Nc2ccc3c(c2)C=CCN(C)C3=O)nc1Nc1ccc2oc(=O)[nH]c2c1 [IV-19, (Z)-5-(5-methyl-2-(2-methyl-1-oxo-2,3-dihydro-1H-benzo[c]azepin-7-ylamino)pyrimidin-4-ylamino)benzo[d]oxazol-2(3H)-one] | < 500 nM | – |
| Cc1cnc(Nc2ccc3c(c2)CCCN(C)C3=O)nc1Nc1ccc2oc(=O)[nH]c2c1 [IV-21, 5-(5-methyl-2-(2-methyl-1-oxo-2,3,4,5-tetrahydro-1H-benzo[c]azepin-7-ylamino)pyrimidin-4-ylamino)benzo[d]oxazol-2(3H)-one] | < 500 nM | – |
| Cc1cnc(Nc2ccc3oc(=O)[nH]c3c2)nc1Nc1ccc2oc(=O)[nH]c2c1 [IV-22, 5,5′-(5-methylpyrimidine-2,4-diyl)bis(azanediyl)dibenzo[d]oxazol-2(3H)-one] | < 500 nM | – |
| Cc1cnc(Nc2ccc3c(c2)NC(=O)CCC3)nc1Nc1ccc2oc(=O)[nH]c2c1 [IV-23, 5-(5-methyl-2-(2-oxo-2,3,4,5-tetrahydro-1H-benzo[b]azepin-8-ylamino)pyrimidin-4-ylamino)benzo[d]oxazol-2(3H)-one] | < 500 nM | – |
